pEC50 data for 76 targets are collected here from the supplement of paper PMC6411743.

Compound in one test: Nc1ncnc2c1ncn2[C@@H]1O[C@H](COP(=O)(O)OP(=O)(O)OP(=O)(O)O)[C@@H](O)[C@H]1O [adenosine triphosphate]
As to the kind of experiment: pEC50 of ATP-induced change in protein thermal stability (2D-TPP). In short, it runs like this: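 Each of three independent experiments used Jurkat crude lysate given five concentrations including vehicle (10 min, room temperature), followed by 3 min at one of 12 temperatures from 42 to 63.9 °C and NP40 with benzonase (60 min, 4 °C). TMT LC-MS/MS quantified soluble protein after ultracentrifugation, expressed as fold changes against vehicle at each temperature with median normalisation. For pEC50, dose-response curves were fitted per replicate over adjacent temperature pairs, and hits were called through permutation-based false discovery rate control.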

Compound in a further test: Nc1nc2c(ncn2[C@@H]2O[C@H](COP(=O)(O)OP(=O)(O)OP(=O)(O)O)[C@@H](O)[C@H]2O)c(=O)[nH]1 [guanosine triphosphate]
As to the kind of experiment: pEC50 of GTP-induced change in protein thermal stability (2D-TPP). How it is done:
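2D thermal proteome profiling in Jurkat crude lysate. Lysate was treated 10 min at room temperature with Na-GTP (0, 0.001, 0.01, 0.1, 0.5 mM), heated to 12 temperatures (42-63.9 °C) for 3 min, and soluble protein was quantified by TMT10 LC-MS/MS. pEC50 is the median over replicates of dose-response fits (FDR-controlled hits).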
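Wherever pEC50 of ATP-induced change in protein thermal stability (2D-TPP) is given: lysate dosed with Na-ATP at 0 0.005 0.05 0.5 and 2 mM.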

Sequence of UniProt P36404 (P36404 whole entry): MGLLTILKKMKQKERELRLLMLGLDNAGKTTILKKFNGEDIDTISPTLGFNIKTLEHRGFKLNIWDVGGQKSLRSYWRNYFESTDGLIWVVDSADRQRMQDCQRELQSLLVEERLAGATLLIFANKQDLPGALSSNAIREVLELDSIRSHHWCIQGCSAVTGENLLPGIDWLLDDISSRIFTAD
Sequence of UniProt O15439 (O15439 whole entry): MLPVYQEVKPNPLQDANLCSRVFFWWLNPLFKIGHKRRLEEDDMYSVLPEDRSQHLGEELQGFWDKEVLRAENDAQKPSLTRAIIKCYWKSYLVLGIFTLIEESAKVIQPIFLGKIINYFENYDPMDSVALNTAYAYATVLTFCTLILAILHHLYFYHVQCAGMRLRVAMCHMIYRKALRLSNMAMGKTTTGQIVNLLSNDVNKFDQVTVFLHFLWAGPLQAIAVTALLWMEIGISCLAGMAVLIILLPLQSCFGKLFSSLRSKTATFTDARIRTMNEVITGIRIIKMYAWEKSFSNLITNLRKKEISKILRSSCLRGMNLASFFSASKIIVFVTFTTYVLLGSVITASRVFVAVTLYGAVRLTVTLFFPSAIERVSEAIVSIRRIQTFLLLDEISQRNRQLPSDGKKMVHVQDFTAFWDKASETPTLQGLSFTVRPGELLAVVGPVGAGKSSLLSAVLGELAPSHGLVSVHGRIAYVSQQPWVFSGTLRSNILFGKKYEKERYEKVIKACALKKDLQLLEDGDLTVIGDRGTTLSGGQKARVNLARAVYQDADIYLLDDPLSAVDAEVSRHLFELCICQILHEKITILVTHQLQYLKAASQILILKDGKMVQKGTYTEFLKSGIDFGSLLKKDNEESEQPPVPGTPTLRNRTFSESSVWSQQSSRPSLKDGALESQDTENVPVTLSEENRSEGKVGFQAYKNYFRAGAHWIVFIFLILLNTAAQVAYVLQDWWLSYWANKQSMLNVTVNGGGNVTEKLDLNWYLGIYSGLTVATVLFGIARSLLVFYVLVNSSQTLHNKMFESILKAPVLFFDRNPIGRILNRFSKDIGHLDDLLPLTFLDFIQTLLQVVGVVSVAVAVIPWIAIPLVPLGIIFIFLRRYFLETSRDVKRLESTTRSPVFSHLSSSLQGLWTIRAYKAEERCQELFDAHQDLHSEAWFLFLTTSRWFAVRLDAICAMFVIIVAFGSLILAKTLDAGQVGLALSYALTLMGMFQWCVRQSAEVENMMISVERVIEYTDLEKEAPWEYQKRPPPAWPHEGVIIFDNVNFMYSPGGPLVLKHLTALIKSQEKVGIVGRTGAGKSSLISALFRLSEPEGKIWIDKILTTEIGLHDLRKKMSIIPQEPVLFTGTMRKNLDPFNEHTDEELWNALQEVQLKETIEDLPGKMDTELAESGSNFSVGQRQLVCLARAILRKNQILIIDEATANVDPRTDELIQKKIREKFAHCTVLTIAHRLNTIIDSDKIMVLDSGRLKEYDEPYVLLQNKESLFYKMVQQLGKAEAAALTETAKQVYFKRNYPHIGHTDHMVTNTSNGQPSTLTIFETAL
Sequence of UniProt Q9Y4W6 (Q9Y4W6 whole entry): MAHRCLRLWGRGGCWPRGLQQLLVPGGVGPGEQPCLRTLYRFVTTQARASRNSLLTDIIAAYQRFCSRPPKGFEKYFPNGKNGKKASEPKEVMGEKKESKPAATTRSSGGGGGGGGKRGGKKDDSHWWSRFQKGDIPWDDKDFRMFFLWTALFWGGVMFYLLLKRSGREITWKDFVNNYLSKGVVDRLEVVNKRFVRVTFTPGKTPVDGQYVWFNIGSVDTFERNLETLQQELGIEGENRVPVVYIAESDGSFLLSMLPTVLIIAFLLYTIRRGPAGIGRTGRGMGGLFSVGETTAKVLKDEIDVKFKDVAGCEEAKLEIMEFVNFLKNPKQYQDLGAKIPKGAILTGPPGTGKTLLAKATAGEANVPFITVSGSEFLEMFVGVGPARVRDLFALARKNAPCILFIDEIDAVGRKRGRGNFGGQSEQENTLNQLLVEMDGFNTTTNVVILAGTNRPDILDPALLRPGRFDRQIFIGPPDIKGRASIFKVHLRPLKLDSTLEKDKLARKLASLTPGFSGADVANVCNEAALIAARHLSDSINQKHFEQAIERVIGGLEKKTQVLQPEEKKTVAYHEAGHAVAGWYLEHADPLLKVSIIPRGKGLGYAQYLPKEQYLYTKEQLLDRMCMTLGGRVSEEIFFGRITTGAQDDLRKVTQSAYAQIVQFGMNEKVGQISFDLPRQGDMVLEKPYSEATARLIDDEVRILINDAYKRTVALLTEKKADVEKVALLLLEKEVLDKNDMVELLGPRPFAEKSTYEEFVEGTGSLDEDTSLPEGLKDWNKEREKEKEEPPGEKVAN
Sequence of UniProt Q9NUB1 (Q9NUB1 whole entry): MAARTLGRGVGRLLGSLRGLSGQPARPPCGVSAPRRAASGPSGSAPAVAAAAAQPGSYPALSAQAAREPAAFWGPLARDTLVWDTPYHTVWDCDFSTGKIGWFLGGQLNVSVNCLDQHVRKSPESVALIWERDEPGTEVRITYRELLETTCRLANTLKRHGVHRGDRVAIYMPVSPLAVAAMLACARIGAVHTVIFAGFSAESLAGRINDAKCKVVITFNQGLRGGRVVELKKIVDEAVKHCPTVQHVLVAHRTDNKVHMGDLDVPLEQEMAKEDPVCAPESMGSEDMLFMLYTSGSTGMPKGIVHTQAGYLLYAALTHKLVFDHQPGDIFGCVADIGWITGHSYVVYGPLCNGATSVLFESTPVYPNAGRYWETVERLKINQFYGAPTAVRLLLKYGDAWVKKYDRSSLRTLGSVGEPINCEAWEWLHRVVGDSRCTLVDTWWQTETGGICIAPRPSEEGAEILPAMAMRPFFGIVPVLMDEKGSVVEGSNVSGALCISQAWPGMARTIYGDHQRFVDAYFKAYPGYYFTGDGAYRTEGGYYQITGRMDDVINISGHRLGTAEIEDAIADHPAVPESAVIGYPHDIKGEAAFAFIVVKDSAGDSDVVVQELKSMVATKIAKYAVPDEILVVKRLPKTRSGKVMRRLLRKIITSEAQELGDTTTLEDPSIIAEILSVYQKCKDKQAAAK
Sequence of UniProt O75027 (O75027 whole entry): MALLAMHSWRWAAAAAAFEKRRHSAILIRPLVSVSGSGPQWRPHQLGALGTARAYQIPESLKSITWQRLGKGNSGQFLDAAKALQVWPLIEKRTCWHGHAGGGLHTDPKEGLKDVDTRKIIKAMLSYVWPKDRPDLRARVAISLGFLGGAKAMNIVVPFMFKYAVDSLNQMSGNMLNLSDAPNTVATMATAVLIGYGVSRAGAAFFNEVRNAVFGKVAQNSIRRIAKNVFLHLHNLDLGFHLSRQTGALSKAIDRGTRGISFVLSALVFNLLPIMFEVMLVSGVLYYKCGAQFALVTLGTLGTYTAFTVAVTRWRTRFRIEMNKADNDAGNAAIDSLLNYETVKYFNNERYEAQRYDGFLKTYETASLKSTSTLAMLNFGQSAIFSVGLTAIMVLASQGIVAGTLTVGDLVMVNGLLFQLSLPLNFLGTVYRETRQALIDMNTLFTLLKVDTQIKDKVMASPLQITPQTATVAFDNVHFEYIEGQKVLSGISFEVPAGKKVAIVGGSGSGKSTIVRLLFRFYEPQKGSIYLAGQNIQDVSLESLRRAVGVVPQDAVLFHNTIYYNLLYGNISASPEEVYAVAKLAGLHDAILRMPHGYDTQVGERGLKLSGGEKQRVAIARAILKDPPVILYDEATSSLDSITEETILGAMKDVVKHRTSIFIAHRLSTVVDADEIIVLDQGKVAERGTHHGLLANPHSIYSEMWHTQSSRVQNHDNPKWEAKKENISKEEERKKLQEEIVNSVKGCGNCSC
Sequence of UniProt Q8NE71 (Q8NE71 whole entry): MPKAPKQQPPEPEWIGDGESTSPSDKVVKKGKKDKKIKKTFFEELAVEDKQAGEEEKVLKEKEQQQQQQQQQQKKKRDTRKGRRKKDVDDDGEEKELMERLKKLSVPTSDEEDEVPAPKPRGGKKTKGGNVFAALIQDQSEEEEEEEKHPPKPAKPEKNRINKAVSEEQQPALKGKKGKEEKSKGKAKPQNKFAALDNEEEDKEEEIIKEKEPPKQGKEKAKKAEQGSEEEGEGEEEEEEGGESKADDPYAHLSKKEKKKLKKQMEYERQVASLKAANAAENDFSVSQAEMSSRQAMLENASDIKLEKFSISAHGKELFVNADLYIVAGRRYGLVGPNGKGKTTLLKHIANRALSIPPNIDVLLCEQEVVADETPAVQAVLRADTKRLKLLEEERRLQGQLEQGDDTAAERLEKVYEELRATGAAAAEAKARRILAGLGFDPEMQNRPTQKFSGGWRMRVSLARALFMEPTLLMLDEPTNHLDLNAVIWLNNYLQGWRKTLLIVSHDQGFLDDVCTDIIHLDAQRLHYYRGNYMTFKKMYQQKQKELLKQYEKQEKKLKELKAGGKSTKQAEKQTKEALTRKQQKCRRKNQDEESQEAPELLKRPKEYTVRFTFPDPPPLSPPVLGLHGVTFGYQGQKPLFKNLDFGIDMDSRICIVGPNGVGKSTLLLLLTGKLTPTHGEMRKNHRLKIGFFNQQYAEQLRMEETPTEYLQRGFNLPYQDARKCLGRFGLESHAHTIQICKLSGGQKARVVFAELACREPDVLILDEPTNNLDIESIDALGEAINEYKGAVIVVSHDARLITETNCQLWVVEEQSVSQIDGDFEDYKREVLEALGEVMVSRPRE
Sequence of UniProt Q9UIJ7 (Q9UIJ7 whole entry): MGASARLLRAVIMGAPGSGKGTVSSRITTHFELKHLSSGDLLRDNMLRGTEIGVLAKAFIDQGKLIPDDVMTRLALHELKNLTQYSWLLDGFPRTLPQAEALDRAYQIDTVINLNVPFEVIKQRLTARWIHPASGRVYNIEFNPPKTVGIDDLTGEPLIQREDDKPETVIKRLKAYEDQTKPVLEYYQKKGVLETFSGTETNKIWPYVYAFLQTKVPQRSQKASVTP
Sequence of UniProt P11233 (P11233 whole entry): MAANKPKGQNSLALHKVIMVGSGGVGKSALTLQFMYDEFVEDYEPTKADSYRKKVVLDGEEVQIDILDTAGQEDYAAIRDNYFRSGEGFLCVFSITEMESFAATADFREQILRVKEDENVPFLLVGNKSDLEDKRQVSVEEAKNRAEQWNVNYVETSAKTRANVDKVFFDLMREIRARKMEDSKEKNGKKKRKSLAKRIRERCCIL

Take “ABCB7 (effect direction: stabilized) (UniProt O75027)”: the values for the pEC50 in the test with adenosine triphosphate and in the test with guanosine triphosphate were 3.49 and 3.82, respectively.

In the case of “ABCC4 (effect direction: stabilized) (UniProt O15439)”, the pEC50 with adenosine triphosphate worked out at 3.41; with guanosine triphosphate, 3.94.

As for “ABCF1 (effect direction: stabilized) (UniProt Q8NE71)”, the pEC50 with adenosine triphosphate was determined as 4.2; with guanosine triphosphate it was 3.96.

In the case of “ACSL3 (effect direction: stabilized) (UniProt O95573)”, the figures for the negative logarithm of the EC50 (pEC50) with adenosine triphosphate and in the test with guanosine triphosphate were 3.91 and 3.9, respectively.

On to “ACSS1 (effect direction: stabilized) (UniProt Q9NUB1)”, for which the pEC50 with adenosine triphosphate is 3.42; in the test with guanosine triphosphate, below 3.3.

Consider “ACTR3 (effect direction: stabilized) (UniProt P61158)”, for which the pEC50 in the test with adenosine triphosphate worked out at 4.25; with guanosine triphosphate, 3.93.

Consider “AFG3L2 (effect direction: stabilized) (UniProt Q9Y4W6)”, for which the pEC50 with adenosine triphosphate came out at 4.18; in the test with guanosine triphosphate, 3.89.

In the case of “AK3 (effect direction: stabilized) (UniProt Q9UIJ7)”, the pEC50 was 3.22 with adenosine triphosphate and 3.46 in the test with guanosine triphosphate.

Regarding “ANP32B (effect direction: stabilized) (UniProt Q92688)”, the values for the pEC50 in the test with adenosine triphosphate and with guanosine triphosphate were 2.89 and 3.75, respectively.

In the case of “ARL2 (effect direction: stabilized) (UniProt P36404)”, the figures for the pEC50 with adenosine triphosphate and in the test with guanosine triphosphate were 3.3 and 4.15, respectively.

Take “ARPC1B (effect direction: stabilized) (UniProt O15143)”: the pEC50 in the test with adenosine triphosphate was 4.25; in the test with guanosine triphosphate, 3.83.

In the case of “PANK4 (effect direction: stabilized) (UniProt Q9NVE7)”, the pEC50 in the test with guanosine triphosphate came out at 3.55.

As to “PCK2 (effect direction: stabilized) (UniProt Q16822)”, the pEC50 with guanosine triphosphate was 3.79.

Consider “POFUT1 (effect direction: stabilized) (UniProt Q9H488)”, for which the pEC50 in the test with guanosine triphosphate turned out to be 3.78.

“RAB1B (effect direction: stabilized) (UniProt Q9H0U4)”: in the test with guanosine triphosphate, the pEC50 amounted to 3.88.

Consider “RAB3A (effect direction: stabilized) (UniProt P20336)”, for which, in the test with guanosine triphosphate, the pEC50 was determined as 4.

As for “RAB3D (effect direction: stabilized) (UniProt O95716)”, the pEC50 with guanosine triphosphate was 3.85.

Take “RAB5A (effect direction: stabilized) (UniProt P20339)”: the pEC50 with guanosine triphosphate is 3.97.

Regarding “RAB11B (effect direction: stabilized) (UniProt Q15907)”, in the test with guanosine triphosphate, the pEC50 was found to be 4.23.

For the target “RAB12 (effect direction: stabilized) (UniProt Q6IQ22)”, the pEC50 with guanosine triphosphate turned out to be 3.93.

As for “RAB18 (effect direction: stabilized) (UniProt Q9NP72)”, in the test with guanosine triphosphate, the pEC50 stood at 3.65.

As for “RAB23 (effect direction: stabilized) (UniProt Q9ULC3)”, the pEC50 with guanosine triphosphate came to 4.02.

Regarding “RAB27A (effect direction: stabilized) (UniProt P51159)”, in the test with guanosine triphosphate, the pEC50 is 3.92.

For the target “RAB33B (effect direction: stabilized) (UniProt Q9H082)”, the negative logarithm of the EC50 (pEC50) in the test with guanosine triphosphate was 4.12.

As to “RAB37 (effect direction: stabilized) (UniProt Q96AX2)”, in the test with guanosine triphosphate, the pEC50 came to 3.8.

On to “RAC2 (effect direction: stabilized) (UniProt P15153)”, for which the pEC50 in the test with guanosine triphosphate came out at 3.98.

On to “RALA (effect direction: stabilized) (UniProt P11233)”, for which, in the test with guanosine triphosphate, the pEC50 was 4.33.

Regarding “RALB (effect direction: stabilized) (UniProt P11234)”, the pEC50 with guanosine triphosphate was determined as 4.14.

Take “RAP2A (effect direction: stabilized) (UniProt P10114)”: the pEC50 with guanosine triphosphate was found to be 4.47.

Take “RECQL (effect direction: destabilized) (UniProt P46063)”: the pEC50 in the test with guanosine triphosphate is 3.84.

As to “RFC3 (effect direction: stabilized) (UniProt P40938)”, the pEC50 in the test with guanosine triphosphate was 3.85.

Take “RFC4 (effect direction: stabilized) (UniProt P35249)”: the pEC50 in the test with guanosine triphosphate came out at 3.91.

In the case of “RFC5 (effect direction: stabilized) (UniProt P40937)”, in the test with guanosine triphosphate, the pEC50 turned out to be 3.8.

Regarding “RNGTT (effect direction: stabilized) (UniProt O60942)”, the pEC50 with guanosine triphosphate was determined as 4.39.

With “RRAS (effect direction: stabilized) (UniProt P10301)”, the pEC50 with guanosine triphosphate came out at 3.84.

On to “RSRC2 (effect direction: stabilized) (UniProt Q7L4I2)”, for which, in the test with guanosine triphosphate, the pEC50 is 3.79.

As to “SACS (effect direction: stabilized) (UniProt Q9NZJ4)”, in the test with guanosine triphosphate, the pEC50 was found to be 3.82.

“SAFB2 (effect direction: destabilized) (UniProt Q14151)”: in the test with guanosine triphosphate, the pEC50 was determined as 3.34.

On to “SAFB (effect direction: destabilized) (UniProt Q15424)”, for which the pEC50 with guanosine triphosphate was 4.81.

On to “SAR1A (effect direction: stabilized) (UniProt Q9NR31)”, for which the pEC50 with guanosine triphosphate was 3.87.

Take “SAR1B (effect direction: stabilized) (UniProt Q9Y6B6)”: the pEC50 with guanosine triphosphate was found to be 4.16.

“SRP54 (effect direction: stabilized) (UniProt P61011)”: the pEC50 in the test with guanosine triphosphate stood at 3.98.

As to “SRP68 (effect direction: stabilized) (UniProt Q9UHB9)”, in the test with guanosine triphosphate, the pEC50 came out at 4.12.

With “SRP72 (effect direction: stabilized) (UniProt O76094)”, in the test with guanosine triphosphate, the negative logarithm of the EC50 (pEC50) came to 4.01.

With “TAP1 (effect direction: stabilized) (UniProt Q03518)”, the pEC50 in the test with guanosine triphosphate came to 3.74.

Take “TUBA1A (effect direction: stabilized) (UniProt Q71U36)”: the pEC50 in the test with guanosine triphosphate is 3.4.

Take “TUBE1 (effect direction: stabilized) (UniProt Q9UJT0)”: the pEC50 in the test with guanosine triphosphate was found to be 4.31.

For “TUFM (effect direction: stabilized) (UniProt P49411)”, in the test with guanosine triphosphate, the pEC50 amounted to 4.41.

On to “UCK1 (effect direction: stabilized) (UniProt Q9HA47)”, for which the pEC50 with guanosine triphosphate was below 3.3.

In the case of “UQCRC2 (effect direction: stabilized) (UniProt P22695)”, the pEC50 in the test with guanosine triphosphate is 4.3.

With “UniProt A3KMH1 (effect direction: stabilized)”, in the test with guanosine triphosphate, the pEC50 was determined as 3.98.

Regarding “UniProt O00506 (effect direction: stabilized)”, the pEC50 in the test with guanosine triphosphate amounted to 3.86.

“UniProt O14966 (effect direction: stabilized)”: the negative-log EC50 (pEC50) in the test with guanosine triphosphate came to 4.27.

For “UniProt O75582 (effect direction: stabilized)”, in the test with guanosine triphosphate, the pEC50 was 4.16.

In the case of “UniProt O95747 (effect direction: stabilized)”, the negative logarithm of the EC50 (pEC50) with guanosine triphosphate is 3.79.

As for “UniProt P08134 (effect direction: stabilized)”, the pEC50 in the test with guanosine triphosphate stood at 4.43.

Take “UniProt P48730 (effect direction: stabilized)”: in the test with guanosine triphosphate, the pEC50 is 3.86.

As for “UniProt P51149 (effect direction: stabilized)”, the pEC50 in the test with guanosine triphosphate amounted to 3.9.

As for “UniProt P60953 (effect direction: stabilized)”, the pEC50 in the test with guanosine triphosphate was 3.59.

Regarding “UniProt P61020 (effect direction: stabilized)”, the pEC50 in the test with guanosine triphosphate was determined as 4.67.

As to “UniProt P61221 (effect direction: stabilized)”, in the test with guanosine triphosphate, the pEC50 amounted to 4.18.

“UniProt P62330 (effect direction: stabilized)”: the pEC50 in the test with guanosine triphosphate was determined as 3.98.

For “UniProt P62805 (effect direction: stabilized)”, the pEC50 in the test with guanosine triphosphate stood at 3.69.

Turning to “UniProt P62834 (effect direction: stabilized)”, the pEC50 in the test with guanosine triphosphate is 4.38.

As to “UniProt P63000 (effect direction: stabilized)”, the pEC50 with guanosine triphosphate worked out at 3.84.

For “UniProt P78527 (effect direction: stabilized)”, the pEC50 with guanosine triphosphate amounted to 3.93.

On to “UniProt P84085 (effect direction: stabilized)”, for which the pEC50 in the test with guanosine triphosphate amounted to 4.13.

In the case of “UniProt P84095 (effect direction: stabilized)”, in the test with guanosine triphosphate, the pEC50 amounted to 3.83.

Turning to “UniProt P84103 (effect direction: stabilized)”, the pEC50 with guanosine triphosphate came out at 3.94.

For “UniProt Q5JTY5 (effect direction: stabilized)”, the pEC50 with guanosine triphosphate came out at 4.22.

Take “UniProt Q9BSD7 (effect direction: stabilized)”: in the test with guanosine triphosphate, the pEC50 worked out at 3.96.

“UniProt Q9NZ01 (effect direction: stabilized)”: the pEC50 in the test with guanosine triphosphate worked out at 3.66.

As to “UniProt Q9Y3L5 (effect direction: stabilized)”, in the test with guanosine triphosphate, the pEC50 turned out to be 3.83.

Regarding “UniProt Q86Y56 (effect direction: stabilized)”, the pEC50 with guanosine triphosphate amounted to 4.09.

Turning to “UniProt Q08170 (effect direction: stabilized)”, the negative logarithm of the EC50 (pEC50) in the test with guanosine triphosphate stood at 3.79.

For the target “UniProt Q13243 (effect direction: stabilized)”, in the test with guanosine triphosphate, the pEC50 was 3.6.

A word on the pEC50: it is −log10 of the EC50, conventionally taken in molar units.
